Where “and” joins values, the source holds several entries; their conditions need not be identical. Identical values can stand only once.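 These data come from cells grown in 96-well plates and exposed to compound for 48 hours at five concentrations. GI50 marks 50% less growth. The concentration for full growth arrest is given as TGI.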
How the values were obtained:
Assay in all cases: inhibition of tumour cell growth, NCI panel, 48 h
KM12 colon = test system: KM12 colon
HL-60(TB) leukemia = test system: HL-60(TB) leukemia
HOP-92 NSCLC = test system: HOP-92 NSCLC
TK-10 renal = test system: TK-10 renal
OVCAR-8 ovarian = test system: OVCAR-8 ovarian
COLO 205 colon = test system: COLO 205 colon
NCI-H23 lung = test system: NCI-H23 lung
SK-MEL-2 melanoma = test system: SK-MEL-2 melanoma
PC-3 prostate = test system: PC-3 prostate
OVCAR-4 ovarian = test system: OVCAR-4 ovarian

Row | SMILES | GI50 (KM12 colon) | TGI (KM12 colon) | GI50 (HL-60(TB) leukemia) | TGI (HL-60(TB) leukemia) | GI50 (HOP-92 NSCLC) [µM] | TGI (HOP-92 NSCLC) | GI50 (TK-10 renal) | TGI (TK-10 renal) | GI50 (OVCAR-8 ovarian) | TGI (OVCAR-8 ovarian) | GI50 (COLO 205 colon) | TGI (COLO 205 colon) | GI50 (NCI-H23 lung) | TGI (NCI-H23 lung) | GI50 (SK-MEL-2 melanoma) | TGI (SK-MEL-2 melanoma) | GI50 (PC-3 prostate) [µM] | TGI (PC-3 prostate) | GI50 (OVCAR-4 ovarian) | TGI (OVCAR-4 ovarian)
1 | C=C1CCC2C3(C)COC(c4ccc(SC)cc4)OC3CCC2(C)C1C/C=C1/C(=O)OCC1O (centres undefined) | 5.21 µM | 17.6 µM | 2.59 µM | 7.87 µM | 5.19 | 17.1 µM | 14 µM | 29.9 µM | 2.14 µM | 6.56 µM | 7.72 µM | 20.6 µM | 4.48 µM | 17.4 µM | 3.73 µM | 15.5 µM | 5.67 | 20.2 µM | 5.81 µM | 18.7 µM
2 | Cc1cc(-c2nc(-c3ccc(OC(F)(F)F)cc3)no2)nn1Cc1ccnc(N2CCN(C3CC3)CC2)c1 | 6.88 µM | > 91.9 µM | 2.93 µM | > 69.2 µM | 1.55 | 81.4 µM | 11.2 µM | > 100 µM | > 44.4 µM | > 100 µM | 3.27 µM | 25.7 µM | < 0.01 µM | > 86.3 µM | > 42.1 µM | > 100 µM | 3.38 | > 100 µM | < 0.01 µM | > 100 µM
3 | O=C1/C(=C/c2ccccc2)CCC/C1=C\c1ccccc1 | 3.54 µM and 2.11 µM | 7.81 µM and 5.54 µM and 4.26 µM | 10.4 µM and 26.1 µM | 36.5 µM and > 53 µM and 90 µM | 6.48 | 13 µM and 35.2 µM and 37.3 µM | 6.12 µM | 11.9 µM and 33.2 µM and 40 µM | 3.57 µM | 13.6 µM and 28.1 µM and 25.4 µM | 6.31 µM and 15.1 µM | 11.5 µM and 32.7 µM and 35.2 µM | 6.88 µM | 12.3 µM and 21.9 µM and 36.4 µM | 6.19 µM and 22.7 µM | 13.9 µM and 35.5 µM and 49.9 µM | 14.3 | 11 µM and 42.5 µM | 6.18 µM | 11.8 µM and 32.4 µM
4 | CC(=O)OC[C@]12CC[C@@H]([C@@H](C)C(N)=O)[C@@H]1[C@H]1CC[C@@H]3[C@@]4(C)CC[C@H](OC(C)=O)C(C)(C)[C@@H]4CC[C@@]3(C)[C@]1(C)CC2 | 3.86 µM | 15.8 µM | 2.76 µM | 8.4 µM | 5.21 | 19.4 µM | 14.7 µM | 39.8 µM | 5.44 µM | 25.2 µM | 4.31 µM | 25 µM | 9.42 µM | 33.6 µM | 10.8 µM | 27.5 µM | 2.67 | 11.6 µM | 4.72 µM | 18.5 µM
5 | O=C1c2ccccc2-c2c1c1ccccc1c(=O)n2CCCN1CCN(CCCn2c3c(c4ccccc4c2=O)C(=O)c2ccccc2-3)CC1 | > 100 µM | > 100 µM | 79.7 µM | > 100 µM | 19.9 | 74.1 µM | 22.7 µM | > 70.8 µM | 15.6 µM | > 100 µM | > 100 µM | > 100 µM | 34.5 µM | > 83.8 µM | > 100 µM | > 100 µM | > 100 | > 100 µM | > 100 µM | > 100 µM
6 | CC1(C)CC2C=C(C=O)C3(C=O)CC3(C)C2C1 (centres undefined) | – | 13.5 µM | – | > 100 µM | – | 3.97 µM | – | 5.62 µM | – | 6.1 µM | – | 4.25 µM | – | 3.99 µM | – | 4.45 µM | – | 4.33 µM | – | 3.22 µM
7 | O=C(c1cccs1)c1c(C(F)(F)F)n([O-])c2ccc(F)cc2[n+]1=O | 0.163 µM | 0.35 µM | 0.154 µM | 0.394 µM | 0.914 | 2.48 µM | 1.41 µM | 3.06 µM | 0.528 µM | 1.34 µM | 0.456 µM | 1.62 µM | 1.22 µM | 2.6 µM | 0.841 µM | 2.37 µM | 0.961 | 2.33 µM | 1.41 µM | 2.75 µM
8 | N#Cc1cccc(NC(=O)c2oc3ccccc3c2-c2cnn(-c3ccccc3)c2)c1 | > 500 µM | > 500 µM | > 500 µM | > 500 µM | 121 | > 500 µM | 317 µM | > 500 µM | > 500 µM | > 500 µM | > 500 µM | > 500 µM | > 500 µM | > 500 µM | > 500 µM | > 500 µM | > 500 | > 500 µM | 193 µM | > 500 µM
9 | CN1c2ccccc2S(=O)(=O)n2c(COc3ccc(Cl)cc3)nnc21 | – | > 100 µM | – | > 100 µM | – | 63.2 µM | – | > 100 µM | – | > 100 µM | – | > 100 µM | – | > 100 µM | – | > 100 µM | – | > 100 µM | – | > 100 µM
10 | COc1cc2c3c(n(C)c(=O)c2cc1OC)-c1cc2c(cc1/C3=C\CCCBr)OCO2 | > 100 µM | > 100 µM | > 80.3 µM | > 100 µM | 92.4 | > 100 µM | 15.2 µM | > 53.4 µM | – | > 48.7 µM | 18.8 µM | 55.8 µM | 19.6 µM | 49.6 µM | 21.3 µM | 69.4 µM | > 95.2 | > 100 µM | 39.2 µM | > 100 µM
11 | C#CCNC(=O)CC[C@]1(C)[C@H]2CC[C@@H]3[C@@H]([C@@](C)(O)CCC=C(C)C)CC[C@@]3(C)[C@]2(C)CC[C@H]1C(=C)C | 38.5 µM | > 100 µM | 1.19 µM | 15.9 µM | 14.8 | 34.2 µM | 43.7 µM | > 100 µM | 31.3 µM | > 100 µM | 31.9 µM | > 100 µM | 27.7 µM | > 100 µM | 47.1 µM | > 100 µM | 17.4 | 70 µM | 43.6 µM | > 100 µM
12 | C=CCN(/C=C1\C(=O)O[C@H](COC)[C@@]2(C)C1=C(O)C(=O)C1=C2[C@H](OC(C)=O)C[C@]2(C)C(=O)CC[C@@H]12)CC=C | 0.979 µM and 2.19 µM | 20 µM and 46.4 µM | 0.21 µM and 0.439 µM | 7.46 µM and 11.2 µM | – | 20 µM and 4.4 µM | 0.128 µM and 0.437 µM | – | 10.2 µM and 3.09 µM | 20 µM and > 100 µM | 5.04 µM and 1.94 µM | 20 µM and 26.3 µM | 8.94 µM and 2.69 µM | 20 µM and > 100 µM | 3.67 µM and 1.48 µM | 20 µM and 8.33 µM | – | > 100 µM | 2.97 µM and 2.58 µM | 20 µM and > 100 µM
13 | COc1ccc(C2=C(c3cc(OC)c(OC)c(OC)c3)C(=O)CC2)cc1 | 0.0719 µM | – | 0.11 µM | 1.21 µM | 1.68 | 54.1 µM | 12.3 µM | > 100 µM | 0.392 µM | > 100 µM | 0.218 µM | 1.17 µM | 0.313 µM | > 100 µM | 0.971 µM | – | 0.203 | > 100 µM | 0.689 µM | > 100 µM
14 | COc1ccc(-c2nn(-c3cccc(NC(=O)Nc4cc(C(F)(F)F)cc(C(F)(F)F)c4)c3)cc2-c2ccncc2)cc1Cl | 1.09 µM | 4.17 µM | 1.24 µM | 3.63 µM | 0.17 | 1.33 µM | 1.67 µM | 10.9 µM | 1.13 µM | 22.5 µM | 0.894 µM | 1.74 µM | 1.41 µM | 8.22 µM | 1.23 µM | 2.8 µM | 0.448 | 2.92 µM | 1.1 µM | 4.86 µM
15 | CCOC(=O)c1c(C)n2c(=O)cc(C)c3c(OC(C)=O)c(OC(C)=O)cc1c32 | 5.54 µM | 29.4 µM | 3.2 µM | 12.1 µM | 4.78 | 41.5 µM | 15 µM | > 100 µM | 3.91 µM | > 61.2 µM | 4.62 µM | 18.7 µM | 4.64 µM | > 34.7 µM | 4.57 µM | 29.8 µM | 5.65 | > 49.7 µM | 3.29 µM | > 33.7 µM
16 | Clc1ccc(-c2nn3ncccc3c2-c2ccnc(Nc3ccccc3)n2)cc1 | 9.03 µM | > 25 µM | 11.3 µM | > 25 µM | 2.89 | > 21.6 µM | 7.43 µM | > 20.4 µM | 11.8 µM | > 25 µM | > 18.7 µM | > 25 µM | 10.5 µM | > 25 µM | 24.4 µM | > 25 µM | 7.3 | > 25 µM | 9.6 µM | > 25 µM
17 | N#Cc1c(NC(=O)CN2CCOCC2)sc2c1CCCC2 | > 25 µM | > 25 µM | > 25 µM | > 25 µM | > 25 | > 25 µM | > 25 µM | > 25 µM | > 25 µM | > 25 µM | > 25 µM | > 25 µM | > 25 µM | > 25 µM | > 25 µM | > 25 µM | > 25 | > 25 µM | > 25 µM | > 25 µM
18 | COc1ccc(Cc2cnc(NC(=O)c3sc4ccccc4c3Cl)s2)cc1 | 0.383 µM | > 100 µM | 0.256 µM | 0.642 µM | 5.26 | > 100 µM | 4.31 µM | > 100 µM | 0.508 µM | > 100 µM | 0.39 µM | 13.3 µM | 0.647 µM | > 100 µM | 0.703 µM | > 100 µM | 0.405 | > 100 µM | 2.82 µM | > 100 µM
